Reference: ChEMBL document CHEMBL1201862, “PubChem BioAssay data set” (2004)
The source made the active and inactive calls.

How the values were obtained:
[1] = Luminescence Cell-Based Dose Response HTS to Identify Activators of Luciferase Translation or Activity in H4 […] Cells. [Related pubchem assays: 1829 (Project Summary), 1814 (Primary HTS)]; type: functional
[2] = Luminescence Cell-Based Dose Confirmation HTS to Identify Activators of 5'UTR Stem-Loop Driven Alpha-Synuclein mRNA Translation in H4 Neuroglioblastoma Cells. [Related pubchem assays: 1829 (Project Summary), 1814 (Primary HTS)]; type: functional
H4 = assay: Luminescence Cell-Based Dose Response HTS to Identify Activators of 5'UTR Stem-Loop Driven Prion Protein mRNA Translation in H4 Neuroglioblastoma Cells. [Related pubchem assays: 1829 (Project Summary), 1814 (Primary HTS)]; type: functional; conditions: Homo sapiens
Cytochrome P450 2C9 = Cytochrome P450 2C9 (Homo sapiens, UniProt P11712)
Cytochrome P450 1A2 = target: T1, Cytochrome P450 1A2 (Homo sapiens, UniProt P05177);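 note: PubChem cytochrome P450 panel assay, CYP1A2 panel member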
T1 sequence (P05177 whole entry): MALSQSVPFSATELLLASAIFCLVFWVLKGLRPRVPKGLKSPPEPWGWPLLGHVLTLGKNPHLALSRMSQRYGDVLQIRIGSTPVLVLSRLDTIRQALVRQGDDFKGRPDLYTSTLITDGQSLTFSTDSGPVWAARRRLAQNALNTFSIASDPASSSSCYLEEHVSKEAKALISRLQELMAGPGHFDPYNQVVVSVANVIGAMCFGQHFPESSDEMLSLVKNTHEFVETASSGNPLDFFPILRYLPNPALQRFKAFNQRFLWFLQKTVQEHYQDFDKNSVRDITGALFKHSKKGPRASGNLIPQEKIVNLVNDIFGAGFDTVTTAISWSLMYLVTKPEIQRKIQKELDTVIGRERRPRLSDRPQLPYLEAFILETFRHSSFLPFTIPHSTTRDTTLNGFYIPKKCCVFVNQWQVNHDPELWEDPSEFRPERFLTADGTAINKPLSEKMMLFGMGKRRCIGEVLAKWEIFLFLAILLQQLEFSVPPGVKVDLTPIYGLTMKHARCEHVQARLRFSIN

Cytochrome P450 2D6 = Cytochrome P450 2D6 (Homo sapiens, UniProt P10635);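 note: CYP2D6 member of a cytochrome P450 panel assay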
Cytochrome P450 2C19 = Cytochrome P450 2C19 (Homo sapiens, UniProt P33261); assay: Cytochrome panel assay with activity outcomes. Panel member name: p450-cyp2c19 Compounds with AC50 equal or less than 10 uM are considered active; type: functional
[3] = Luminescence Cell-Based Dose Retest to Confirm Inhibitors of Cancer Stem Cells. [Related pubchem assays (depositor defined):AID2717, AID2721]; type: functional; conditions: Homo sapiens
[4] = growth suppression of beta-catenin-knockout colon cells, dose response, cell-based, HCT116, human colon tumor (AID 1045); type: functional;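 note: HCT116 colon tumor cells with beta catenin knocked out; cells exposed to compound for 60 hours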
[5] = growth suppression of PTEN-null colon cells, dose response, cell-based, HCT116 PTEN knockout (AID 1047); type: functional;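 note: HCT116 colon tumor cells with PTEN knocked out; cells exposed to compound for 60 hours before readout; potency for loss of cell viability measured by luminescence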
INS1 = assay: beta cell apoptosis inhibitors, cytokine rescue, dose response, luminescence, retest (AID 449756); type: functional, cell-based; conditions: Rattus norvegicus;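 note: cell death triggered by IL-1 beta plus TNF-alpha plus IFN-gamma mixture; protective hits raise ATP signal compared with cytokine alone wells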
[6] = cytotoxicity toward NIH3T3 fibroblasts, dose response, counter-screen, cell-based, ATP luminescence, mouse fibroblasts (AID 2010); type: functional;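 note: cells exposed to compound for about 90 hours before reading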
[7] = inhibitors of intracellular T. cruzi replication, confirmation, NIH3T3 host cells, beta-gal luminescence (AID 2044); type: functional, cell-based;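 note: intracellular parasites grown in NIH/3T3 mouse fibroblasts as host cells; luminescent beta-galactosidase reporter signal from transgenic T. cruzi replicating inside host cells; inhibitors lower the luminescence signal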
Streptococcus = assay: Group A Streptococcus viability loss, dose response, counter-screen for streptokinase expression inhibitor project, luminescence, BacTiterGlo (AID 1915); type: functional, organism-based;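 note: potency for reduction of bacterial viability or growth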
[8] = system: Streptococcus sp. 'group A'; assay: growth inhibition of control SK(-) GAS strain, dose response, counter-screen for streptokinase expression inhibitor project, luminescence, kanamycin, BacTiterGlo, confirmation (AID 1900); type: functional, organism-based
Streptokinase A = target: T2, Streptokinase A (Streptococcus pyogenes serotype M1, UniProt P10520); assay: S. pyogenes streptokinase expression inhibitors, potency, dose response, plasminogen activation absorbance, OD405 (AID 1914); type: functional, Streptococcus pyogenes M1 GAS;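 note: secreted streptokinase activity via plasminogen activation per viability signal from cell pellet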
T2 sequence (P10520 whole entry): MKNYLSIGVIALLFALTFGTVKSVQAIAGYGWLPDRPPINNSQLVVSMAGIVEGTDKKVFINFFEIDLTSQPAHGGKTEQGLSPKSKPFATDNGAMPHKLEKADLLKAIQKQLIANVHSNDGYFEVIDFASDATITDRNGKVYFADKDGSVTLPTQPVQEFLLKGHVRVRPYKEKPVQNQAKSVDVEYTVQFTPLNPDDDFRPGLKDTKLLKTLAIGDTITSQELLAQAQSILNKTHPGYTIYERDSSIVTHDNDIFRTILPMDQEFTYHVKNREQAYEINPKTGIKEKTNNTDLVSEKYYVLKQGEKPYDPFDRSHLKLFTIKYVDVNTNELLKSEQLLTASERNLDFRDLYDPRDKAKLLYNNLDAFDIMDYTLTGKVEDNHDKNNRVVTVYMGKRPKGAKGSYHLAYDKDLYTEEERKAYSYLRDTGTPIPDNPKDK

Chain of Cytochrome P450 2C9 (P11712 whole entry): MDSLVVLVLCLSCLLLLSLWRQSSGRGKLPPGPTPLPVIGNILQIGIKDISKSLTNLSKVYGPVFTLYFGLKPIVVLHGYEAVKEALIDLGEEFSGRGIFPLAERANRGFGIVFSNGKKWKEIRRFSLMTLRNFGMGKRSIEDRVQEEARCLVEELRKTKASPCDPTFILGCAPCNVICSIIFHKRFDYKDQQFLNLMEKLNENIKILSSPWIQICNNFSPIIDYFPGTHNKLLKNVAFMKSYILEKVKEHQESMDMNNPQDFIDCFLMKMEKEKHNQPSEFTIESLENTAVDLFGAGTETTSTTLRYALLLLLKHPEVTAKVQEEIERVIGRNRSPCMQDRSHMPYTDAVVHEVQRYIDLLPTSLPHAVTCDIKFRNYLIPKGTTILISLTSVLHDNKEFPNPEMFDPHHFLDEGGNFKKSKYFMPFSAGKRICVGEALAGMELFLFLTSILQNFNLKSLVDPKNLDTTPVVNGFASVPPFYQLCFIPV
Chain of Cytochrome P450 2D6 (P10635 whole entry): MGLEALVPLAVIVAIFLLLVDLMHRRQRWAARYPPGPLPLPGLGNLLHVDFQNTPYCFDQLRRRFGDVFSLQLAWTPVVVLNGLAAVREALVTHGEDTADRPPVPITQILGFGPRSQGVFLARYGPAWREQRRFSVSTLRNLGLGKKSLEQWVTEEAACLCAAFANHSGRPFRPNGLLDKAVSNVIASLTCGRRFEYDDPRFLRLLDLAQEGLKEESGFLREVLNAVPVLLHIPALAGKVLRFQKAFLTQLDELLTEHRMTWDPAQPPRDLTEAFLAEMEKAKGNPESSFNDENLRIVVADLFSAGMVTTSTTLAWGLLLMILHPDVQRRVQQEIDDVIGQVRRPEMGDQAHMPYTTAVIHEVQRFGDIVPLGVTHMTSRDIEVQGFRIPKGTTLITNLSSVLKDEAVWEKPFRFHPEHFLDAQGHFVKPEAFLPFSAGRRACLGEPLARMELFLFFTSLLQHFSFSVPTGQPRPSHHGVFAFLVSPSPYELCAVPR
Chain of Cytochrome P450 2C19 (P33261 whole entry): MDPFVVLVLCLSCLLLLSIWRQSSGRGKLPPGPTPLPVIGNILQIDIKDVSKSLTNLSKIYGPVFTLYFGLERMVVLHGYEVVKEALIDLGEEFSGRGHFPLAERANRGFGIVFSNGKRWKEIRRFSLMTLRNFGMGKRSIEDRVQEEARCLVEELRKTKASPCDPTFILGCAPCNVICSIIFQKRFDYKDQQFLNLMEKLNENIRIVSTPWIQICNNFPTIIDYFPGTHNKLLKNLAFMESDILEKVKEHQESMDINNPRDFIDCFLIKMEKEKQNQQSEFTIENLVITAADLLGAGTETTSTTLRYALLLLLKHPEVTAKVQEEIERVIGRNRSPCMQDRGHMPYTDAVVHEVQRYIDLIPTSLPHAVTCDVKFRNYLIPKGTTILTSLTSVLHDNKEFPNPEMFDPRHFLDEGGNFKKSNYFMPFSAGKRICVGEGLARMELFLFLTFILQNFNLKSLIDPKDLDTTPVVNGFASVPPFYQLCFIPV

With `N#Cc1c(N2CCCC2)nsc1-c1ccccc1` the EC50 [1] was 12.5 µM (active), the EC50 [2] was 7.09 µM (active) and the EC50 (H4) was 23.2 µM (active).
In the case of `O=C(CCn1nc(-c2ccc(Cl)cc2)ccc1=O)NCc1ccccn1`, the AC50 (Cytochrome P450 2C9) is reported as 5.01 µM (inconclusive) and the AC50 (Cytochrome P450 1A2) is reported as 15.8 µM (inconclusive).
For `Cc1ccc(-n2c(CCC(=O)O)ccc2-c2cccs2)cc1C`, the AC50 (Cytochrome P450 2C9) was 7.08 µM (inconclusive).
With `COCCn1c(=O)c(CCc2ccccc2)nc2cnc(N(C)C)nc21` the AC50 (Cytochrome P450 2D6) was 10 µM (inconclusive) and the AC50 (Cytochrome P450 2C9) was 25.1 µM (inconclusive).
With `O=C(c1cc(O)nc2ccc(Br)cc12)N1CCC2(CC1)OCCO2` the AC50 (Cytochrome P450 2C19; read-out: AC50) was 28.2 µM (inconclusive) and the AC50 (Cytochrome P450 2C9) was 39.8 µM (inconclusive).
In the case of `CCOc1ccc(NC(=O)CN2CCN(S(=O)(=O)c3ccc(Cl)cc3)CC2)cc1`, the AC50 (Cytochrome P450 2C19; read-out: AC50) is reported as 0.562 µM (inconclusive) and the AC50 (Cytochrome P450 2C9) is reported as 2 µM (inconclusive).
For `O=c1c(-c2cc(F)cc(F)c2)nc2cnc(N3CCNCC3)nc2n1C1CC1`, the AC50 (Cytochrome P450 2C19; read-out: AC50) was 20 µM (inconclusive).
With `C[C@H]1[C@H](C)CC[C@]2(C)CC[C@]3(C)C(=CC(=O)C4[C@@]5(C)CC[C@H](O)C(C)(C)C5CC[C@]43C)[C@H]12` (stereo not given in full) the AC50 [3] was 4.76 µM (active).
In the case of `c1cnc(Nc2nc(-c3ccc4ccccc4c3)cs2)nc1`, the AC50 (Cytochrome P450 2C19) is reported as “inconclusive”.
For `CCCCNC(=O)CSc1nc2cc(OC)c(OC)cc2c(=O)n1Cc1ccc(OC)cc1`, the AC50 (Cytochrome P450 2C19; read-out: AC50) was 6.31 µM (inconclusive), the EC50 [4] was 10.3 µM (active) and the EC50 [5] was 6.66 µM (active).
With `CNC(C)c1cc(OC)ccc1OC` (stereo not given) the AC50 (Cytochrome P450 2D6) was 25.1 µM (inconclusive).
For `Cc1c(Br)c([N+](=O)[O-])nn1CC(=O)NCc1cccs1`, the AC50 (Cytochrome P450 2D6) was 5.01 µM (inconclusive), the AC50 (Cytochrome P450 2C19; read-out: AC50) was 5.01 µM (inconclusive) and the AC50 (Cytochrome P450 1A2) was 14.1 µM (inconclusive).
In the case of `COc1cc2c(=O)n(Cc3ccco3)c(=O)n(CC(=O)c3ccc(Br)cc3)c2cc1OC`, the EC50 [4] is reported as 9.3 µM (active) and the EC50 [5] is reported as 8.57 µM (active).
For `O=C1CSC(c2ccccn2)N1c1ccc(Cl)c(Cl)c1` (stereo not given), the AC50 (Cytochrome P450 2C9) was 20 µM (inconclusive).
With `CN1C(=O)C(O)(CC(=O)c2ccccc2O)c2cc(Br)ccc21` (stereo not given) the EC50 [4] was 17 µM (active) and the EC50 [5] was 18 µM (active).
With `CCc1ccccc1NC(=O)c1ccc(F)c(S(=O)(=O)N2CCC(C(N)=O)CC2)c1` the AC50 (Cytochrome P450 2C19; read-out: AC50) was 31.6 µM (inconclusive) and the AC50 (Cytochrome P450 2C9) was 25.1 µM (inconclusive).
For `CCc1c(C2(O)CCCCC2)[nH]c2cc(C(F)(F)F)ccc12`, the AC50 [3] was 2.64 µM (active) and the AC50 (INS1) was 7.52 µM (active).
For `CN(Cc1ccco1)c1ncncc1-c1cccc(NS(C)(=O)=O)c1`, the AC50 (Cytochrome P450 2D6) was 20 µM (inconclusive) and the AC50 (Cytochrome P450 2C9) was 0.501 µM (inconclusive).
In the case of `c1ccc(-c2nnn(CCN3CCCCC3)n2)cc1`, the AC50 (Cytochrome P450 2D6) is reported as 3.16 µM (inconclusive) and the AC50 (Cytochrome P450 1A2) is reported as 5.01 µM (inconclusive).
For `COc1cccc(NC(=O)COC(=O)c2c3c(nc4ccccc24)CCC(C)C3)c1` (stereo not given), the EC50 [6] was > 60 µM (not active), the EC50 [4] was 14.4 µM (active) and the EC50 [5] was 8.9 µM (active). The EC50 [7] was 2.18 µM (active).
With `C=C(C)COc1ccc(-c2nc(N)ncc2-c2ccc(Cl)cc2)c(O)c1` the EC50 (Streptococcus) was 8.12 µM (active), the AC50 [3] was 3.57 µM (active) and the EC50 [8] was 6.33 µM (active). The EC50 (Streptokinase A) was > 150 µM (not active).
For `Cc1cc(F)ccc1S(=O)(=O)Nc1ccccc1C(=O)Nc1ccccc1N1CCOCC1`, the AC50 (Cytochrome P450 2D6) was 15.8 µM (inconclusive).
In the case of `O=C(CN1CCCCC1)Nc1ccc(Br)cc1C(=O)c1ccccc1Cl`, the AC50 (Cytochrome P450 2D6) is reported as 11.2 µM (inconclusive).
With `N#CCCn1c(=O)c(-c2cccc(C#N)c2)nc2cnc(Oc3ccccc3)nc21` the AC50 (Cytochrome P450 2C9) was 39.8 µM (inconclusive) and the AC50 (Cytochrome P450 1A2) was 20 µM (inconclusive).
For `COc1ccc2cc3cc(C(=O)Nc4ccc5c(c4)OCO5)oc3nc2c1`, the AC50 (Cytochrome P450 2C9) was 5.01 µM (inconclusive).
With `CCC(c1nnnn1Cc1ccco1)N(CCc1ccccc1)Cc1cc2ccc(OC)cc2nc1O` (stereo not given) the EC50 [4] was 23.6 µM (active) and the EC50 [5] was 22.8 µM (active).
